Assay results as given in patent publication US20210393623A1 (Jacobio Pharmaceuticals Co., Ltd., priority 2018, published 2021).

Biological target: T1, SHP2 (Homo sapiens, UniProt Q06124)
T1 sequence (Q06124 1-593): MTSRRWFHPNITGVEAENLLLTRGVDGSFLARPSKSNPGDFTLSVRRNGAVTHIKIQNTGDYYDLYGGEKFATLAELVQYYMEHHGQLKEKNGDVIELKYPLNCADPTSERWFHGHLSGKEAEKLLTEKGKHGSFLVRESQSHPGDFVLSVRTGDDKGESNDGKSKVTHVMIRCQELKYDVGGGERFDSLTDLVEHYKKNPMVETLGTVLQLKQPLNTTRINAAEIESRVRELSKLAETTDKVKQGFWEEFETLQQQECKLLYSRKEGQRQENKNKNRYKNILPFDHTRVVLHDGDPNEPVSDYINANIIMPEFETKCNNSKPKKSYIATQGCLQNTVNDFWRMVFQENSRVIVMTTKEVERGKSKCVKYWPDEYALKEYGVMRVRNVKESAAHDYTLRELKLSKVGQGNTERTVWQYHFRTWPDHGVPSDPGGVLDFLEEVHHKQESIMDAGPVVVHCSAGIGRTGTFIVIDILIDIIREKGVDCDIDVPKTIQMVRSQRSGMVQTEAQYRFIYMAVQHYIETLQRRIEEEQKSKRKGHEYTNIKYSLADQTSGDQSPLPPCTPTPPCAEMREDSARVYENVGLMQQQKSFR
Experiment: Phosphatase Assay (Single Dose Inhibition)
Type: biochemical
Conditions: compound at 0.02 μM (20nM); DiFMUP substrate 12 μM; SHP2 0.5 nM activated with dPEG8 peptide; DMSO control set to 100%; triplicate
Method: Phosphatase Assay (Single Dose Inhibition) Assay Protocol: For single dose inhibition assays using 6,8-difluoro-4-methylumbelliferyl phosphate (DiFMUP) as a substrate, SHP2 samples (diluted to 0.5 nM in reaction buffer) were incubated with dPEG8 peptide for 30 min in reaction buffer[60 mM 3,3-dimethyl glutarate (pH7.2), 75 mM NaCl, 75 mM KCl, and 1 mM EDTA, 0.05% Tween 20, 2mM dithiothreitol (DTT) ] to active the PTP. DMSO [0.5% (v/v)] or compounds (20nM) were added to the mixture and incubated for 30 min at room temperature. Reactions were initiated by the addition of DiFMUP (12 μM; total reaction volume of 100 μL), and the fluorescence (excitation at 340 nm, emission at 450 nm) of the resulting solutions was measured on a 2104-0020 EnVision Xcite Multilabel Reader (PerkinElmer) after 30min. The experiment is carried out in triplicate. The value for the control sample (DMSO) was set to 100%, and the values for the compound-treated samples were expressed as activity relative to the control sample.

Molecule | inhibition at 0.02 µM [%] | SHP2 inhibition(%)
Cc1cccc(-c2ncc(N3CCC4(CC3)Cc3ccc(Br)cc3[C@H]4N)nc2N)c1Cl [Example 45, (S)-1′-(6-amino-5-(2-chloro-3-methylphenyl)pyrazin-2-yl)-6-bromo-1,3-dihydrospiro[indene-2,4′-piperidin]-1-amine] | 78 | 
Cc1cccc(-c2ncc(N3CCC4(CC3)Cc3ccc(N)cc3[C@H]4N)nc2N)c1Cl [Example 47, (S)-1′-(6-amino-5-(2-chloro-3-methylphenyl)pyrazin-2-yl)-1,3-dihydrospiro[indene-2,4′-piperidine]-1,6-diamine] | 56 | 
N[C@@H]1c2ccccc2CC12CCN(c1cnc3c(N4CCCc5ncccc54)n[nH]c3n1)CC2 [Example 50, (S)-1′-(3-(3,4-dihydro-1,5-naphthyridin-1(2H)-yl)-1H-pyrazolo[3,4-b]pyrazin-6-yl)-1,3-dihydrospiro[indene-2,4′-piperidin]-1-amine] | 86 | 
ethyl (S)-3-(1-amino-1,3-dihydrospiro[indene-2,4′-piperidin]-1′-yl)-6-(2,3-dichlorophenyl)-5--2-carboxylate [Example 1] |  | 82
